From US12285012B2, “Compositions comprising pyridine carboxylate herbicides with acetolactate synthase (ALS) inhibitor herbicides” (Corteva Agriscience LLC, priority 2018, dated 2025)
“And” between values parts separate entries of the source, which are not always exact repeats. Identical values can stand only once. Like-named read-outs stand apart in the source and are kept apart here.

How the values were obtained:
[1] = system: turnip (BRSRR, Brassica rapa); assay: Greenhouse postemergence herbicidal effect; type: in vivo; details: Compound B 10 g/ha
How it was run: (§1)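 Injury was rated visually after 20-22 d on a 0 (none) to 100% (complete kill) scale relative to solvent-sprayed controls, with sub-irrigation to avoid wash-off. Rates were given in g ae/ha or g ai/ha depending on component.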

spring wheat (TRZAS) = type: in vivo, Triticum aestivum; details: for % visual injury Obs-Exp: Pyroxsulam 0
How it was run: as §1

spring barley (HORVS) = type: in vivo, Hordeum vulgare
How it was run: as §1

[2] = system: R-PAPRH = Papaver rhoeas (corn poppy), herbicide-resistant; assay: Greenhouse postemergence herbicidal effect; type: in vivo
How it was run: as §1

[3] = system: bird's-eye speedwell (VERPE, Veronica persica); assay: Greenhouse postemergence herbicidal effect; type: in vivo
How it was run: as §1

[4] = system: cleavers (GALAP, Galium aparine); assay: Greenhouse postemergence herbicidal effect; type: in vivo
How it was run: as §1

[5] = system: corn poppy (PAPRH, Papaver rhoeas); assay: Greenhouse postemergence herbicidal effect; type: in vivo
How it was run: as §1

[6] = system: cornflower (CENCY, Cyanus segetum); assay: Greenhouse postemergence herbicidal effect; type: in vivo
How it was run: as §1

[7] = system: false chamomile (MATIN, Matricaria inodora); assay: Greenhouse postemergence herbicidal effect; type: in vivo
How it was run: as §1

[8] = system: field chamomile (ANTAR, Anthemis arvensis); assay: Greenhouse postemergence herbicidal effect; type: in vivo
How it was run: as §1

[9] = system: field violet (VIOAR, Viola arvensis); assay: Greenhouse postemergence herbicidal effect; type: in vivo
How it was run: as §1

[10] = system: ivyleaf speedwell (VERHE, Veronica hederifolia); assay: Greenhouse postemergence herbicidal effect; type: in vivo
How it was run: as §1

[11] = system: purple deadnettle (LAMPU, Lamium purpureum); assay: Greenhouse postemergence herbicidal effect; type: in vivo
How it was run: as §1

[12] = system: shepherd's purse (CAPBP, Capsella bursa-pastoris); assay: Greenhouse postemergence herbicidal effect; type: in vivo
How it was run: as §1

[13] = system: wild mustard (SINAR, Sinapis arvensis); assay: Greenhouse postemergence herbicidal effect; type: in vivo
How it was run: as §1

winter wheat (TRZAW) = assay: Greenhouse postemergence crop phytotoxicity; type: in vivo, Triticum aestivum
From the text: (§2) Seeds of the desired test plant species were planted in a 90:10% v/v (volume/volume) mixture of PRO-MIX® BX (Premier Tech Horticulture, Quakertown, PA, USA) and PROFILE® GREENS GRADE™ (Profile Products LLC, Buffalo Grove, IL, USA) planting mixture, which typically has a pH of 5.2 to 6.2 and an organic matter content of at least 50 percent, in plastic pots with a surface area of 103.2 square centimeters (cm^2). In some aspects, to ensure good germination and healthy plants, a fungicide treatment and/or other chemical or physical treatment was applied. The plants were grown for 7-36 days (d) in a greenhouse with an approximate 14-hour (h) photo-period which was maintained at about 23° C. during the day and 22° C. during the night. Nutrients and water were added on a regular basis and supplemental lighting was provided with overhead metal halide 1000-Watt lamps as necessary. The plants were employed for testing when they reached the second or third true leaf stage.
(§3) Emulsifiable concentrates of each of each pyridine carboxylate herbicide (Compound A or Compound B) were prepared at 100 grams acid equivalent per liter (g ae/L). The emulsifiable concentrates also included a safener, cloquintocet-mexyl, at 120 grams active ingredient per liter (g ai/L), unless otherwise noted below. An aliquot of each emulsifiable concentrate was placed in a 25 mL glass vial and diluted with an aqueous mixture of 1.25% (v/v) ACTIROB® B esterified rapeseed oil (Bayer Crop Science, Research Triangle Park, NC, USA) or MSO® Concentrate with LECI-TECH® methylated soybean oil (Loveland Products, Loveland, CO, USA) to obtain concentrated stock solutions at the highest application rate for each herbicide, based upon a 12 milliliter (mL) application volume at a rate of 187 liters per hectare (L/ha). The concentrated stock solutions were further diluted with an aqueous mixture of 1.25% v/v ACTIROB® B or MSO® Concentrate with LECI-TECH® to obtain stock solutions at reduced application rates for each herbicide. Spray solutions of the herbicide combinations (Compound A or Compound B plus ALS herbicide) were prepared by adding weighed amounts or aliquots of the ALS herbicides to the stock solutions of Compound A or Compound B to form 12-mL spray solutions in two- or three-way combinations. […]
(§4) The treated plants and control plants were placed in a greenhouse as described above and watered by sub-irrigation to prevent wash-off of the test compounds. After 20-22 d, the condition of the test plants as compared with that of the control plants was determined visually and scored on a scale of 0 to 100 percent where 0 corresponds to no injury and 100 corresponds to complete kill.

winter barley (HORVW) = assay: Greenhouse postemergence crop phytotoxicity; type: in vivo, Hordeum vulgare
From the text: as §2, §3, §4

[14] = Compound A 10 g/ha (Examples 62-63)
[15] = Compound A 10 g/ha, safener mefenpyr-diethyl

C#CCOC(=O)c1nc(-c2ccc3cc[nH]c3c2F)c(F)c(N)c1Cl [Compound B, propargyl 4-amino-3-chloro-5-fluoro-6-(7-fluoro-1H-indol-6-yl)pyridine-2-carboxylate]
Obs % visual injury [1]: 85%
Obs % visual injury (spring wheat (TRZAS); TRZAS, Compound B 5 g/ha): 13%
Obs % visual injury (spring wheat (TRZAS); TRZAS, Compound B (without cloquintocet-mexyl safener) 10 g/ha): 28%
Obs % visual injury (spring barley (HORVS); HORVS, Compound B 10 g/ha): 0%

N#CCOC(=O)c1nc(-c2ccc3cc[nH]c3c2F)c(F)c(N)c1Cl [Compound A, cyanomethyl 4-amino-3-chloro-5-fluoro-6-(7-fluoro-1H-indol-6-yl)pyridine-2-carboxylate]
% visual injury ([2]; Compound A 10 g/ha): 93%
% visual injury ([2]; Compound A 15 g/ha): 93%
% visual injury ([3]; Compound A 10 g/ha): 93%
% visual injury ([3]; Compound A 15 g/ha): 95%
% visual injury ([4]; Compound A 10 g/ha): 25%
% visual injury ([4]; Compound A 15 g/ha): 35%
% visual injury ([5]; Compound A 10 g/ha): 100%
% visual injury ([5]; Compound A 15 g/ha): 100%
% visual injury ([6]; Compound A 10 g/ha): 93%
% visual injury ([6]; Compound A 15 g/ha): 95%
% visual injury ([7]; Compound A 10 g/ha): 100%
% visual injury ([7]; Compound A 15 g/ha): 100%
% visual injury ([8]; Compound A 10 g/ha): 90%
% visual injury ([8]; Compound A 15 g/ha): 95%
% visual injury ([9]; Compound A 10 g/ha): 5%
% visual injury ([9]; Compound A 15 g/ha): 5%
% visual injury ([10]; Compound A 10 g/ha): 80%
% visual injury ([10]; Compound A 15 g/ha): 80%
% visual injury ([11]; Compound A 10 g/ha): 75%
% visual injury ([11]; Compound A 15 g/ha): 75%
% visual injury ([12]; Compound A 10 g/ha): 70%
% visual injury ([12]; Compound A 15 g/ha): 80%
% visual injury, Obs ([13]; 10 g/ha): 90% and 92% and 88%
% visual injury ([13]; Compound A 10 g/ha): 95% and 90% and 88% and 93%
% visual injury Obs ([13]; Compound A 10 g/ha): 93% and 92% and 88%
% visual injury, Obs ([13]; Compound A 10 g/ha): 100%
SINAR % visual injury Obs [13, 14]: 100%
% visual injury ([13]; Compound A 15 g/ha): 97% and 93%
% visual injury Obs ([13]; Compound A 15 g/ha): 93%
% visual injury, Obs ([13]; SINAR, Compound A 10 g/ha): 93%
Obs % visual injury ([13]; SINAR, Compound A 10 g/ha): 93% and 88% and 100%
Obs % visual injury ([13]; SINAR, Compound A 10 g/ha (Table 65)): 100%
Obs % visual injury ([13]; SINAR, Compound A 10 g/ha (Table 66)): 88%
% visual injury, Obs ([13]; SINAR, Compound A 15 g/ha): 93%
Obs % visual injury ([13]; SINAR, Compound A 15 g/ha): 93%
% visual injury (winter wheat (TRZAW); Compound A 10 g/ha): 0%
% visual injury (winter wheat (TRZAW); Compound A 15 g/ha): 0%
% visual injury, Obs (spring wheat (TRZAS); 10 g/ha): 0%
% visual injury (spring wheat (TRZAS); Compound A 10 g/ha): 0% and 3%
% visual injury Obs (spring wheat (TRZAS); Compound A 10 g/ha): 0%
% visual injury, Obs (spring wheat (TRZAS); Compound A 10 g/ha): 0%
TRZAS % visual injury Obs (spring wheat (TRZAS); [14]): 0%
% visual injury, Obs (spring wheat (TRZAS); [15]): 3%
TRZAS % visual injury Obs (spring wheat (TRZAS); [15]): 3%
% visual injury (spring wheat (TRZAS); Compound A 15 g/ha): 0%
% visual injury Obs (spring wheat (TRZAS); Compound A 15 g/ha): 0%
% visual injury, Obs (spring wheat (TRZAS); TRZAS, Compound A 10 g/ha): 0%
Obs % visual injury (spring wheat (TRZAS); TRZAS, Compound A 10 g/ha): 0%
Obs % visual injury (spring wheat (TRZAS); TRZAS, Compound A 10 g/ha (Table 65)): 0%
Obs % visual injury (spring wheat (TRZAS); TRZAS, Compound A 10 g/ha (Table 66)): 0%
Obs % visual injury (spring wheat (TRZAS); TRZAS, Compound A 10 g/ha (Table 67)): 3%
% visual injury, Obs (spring wheat (TRZAS); TRZAS, Compound A 15 g/ha): 0%
Obs % visual injury (spring wheat (TRZAS); TRZAS, Compound A 15 g/ha): 0%
Obs % visual injury (spring wheat (TRZAS); TRZAS, Compound A 15 g/ha (Table 67)): 0%
% visual injury Obs-Exp (spring wheat (TRZAS); printed under Compound A 10 g/ha): 0%
% visual injury Obs-Exp (spring wheat (TRZAS); printed under Compound A 15 g/ha): 0%
% visual injury, Obs (spring barley (HORVS); 10 g/ha): 0%
% visual injury (spring barley (HORVS); Compound A 10 g/ha): 0%
% visual injury Obs (spring barley (HORVS); Compound A 10 g/ha): 0%
% visual injury, Obs (spring barley (HORVS); Compound A 10 g/ha): 0%
HORVS % visual injury Obs (spring barley (HORVS); [14]): 0%
% visual injury (spring barley (HORVS); Compound A 15 g/ha): 0%
% visual injury Obs (spring barley (HORVS); Compound A 15 g/ha): 0%
% visual injury, Obs (spring barley (HORVS); HORVS, Compound A 10 g/ha): 0%
Obs % visual injury (spring barley (HORVS); HORVS, Compound A 10 g/ha): 0%
Obs % visual injury (spring barley (HORVS); HORVS, Compound A 10 g/ha (Table 65)): 0%
Obs % visual injury (spring barley (HORVS); HORVS, Compound A 10 g/ha (Table 66)): 0%
Obs % visual injury (spring barley (HORVS); HORVS, Compound A 10 g/ha (Table 67)): 5%
% visual injury, Obs (spring barley (HORVS); HORVS, Compound A 15 g/ha): 0%
Obs % visual injury (spring barley (HORVS); HORVS, Compound A 15 g/ha): 0%
Obs % visual injury (spring barley (HORVS); HORVS, Compound A 15 g/ha (Table 67)): 3%
% visual injury (winter barley (HORVW); Compound A 10 g/ha): 0%
% visual injury (winter barley (HORVW); Compound A 15 g/ha): 0%
